Biological target: T1, GFRα1-RET (Homo sapiens, UniProt P56159)
T1 construct: expressed in transfected cells; host or cells: MG87 murine fibroblasts, stably transfected
T1 sequence (P56159 25-429 limits assumed): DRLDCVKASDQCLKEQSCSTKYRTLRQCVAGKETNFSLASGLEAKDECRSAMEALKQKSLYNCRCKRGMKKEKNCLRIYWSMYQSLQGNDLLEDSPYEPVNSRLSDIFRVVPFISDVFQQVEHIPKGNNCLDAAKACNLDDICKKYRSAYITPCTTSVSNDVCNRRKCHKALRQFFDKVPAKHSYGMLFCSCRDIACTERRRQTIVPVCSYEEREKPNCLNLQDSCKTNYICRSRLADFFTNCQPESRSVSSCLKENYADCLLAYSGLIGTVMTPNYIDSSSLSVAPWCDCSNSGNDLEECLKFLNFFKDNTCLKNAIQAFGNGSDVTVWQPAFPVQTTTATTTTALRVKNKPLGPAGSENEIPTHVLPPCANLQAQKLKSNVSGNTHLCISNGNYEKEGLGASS
Experiment: Elk1 reporter-gene (luciferase) assay in cells expressing GFRα1-RET
Format: cell-based
Details: MG87 murine fibroblasts stably transfected with PathDetect Elk-1, GFRα1 and RET, 6 concentrations, agonist/activator activity
Method: For ECso determination, a dose-response test was performed using 6 concentrations of each tested compound. Dose-response curves were fitted using the sigmoidal dose-response (variable slope) analysis in GraphPad Prism program (Graph Pad Inc) and ECso of agonist/activator activity was calculated. Dose-response experiments were all performed in duplicate, two times independently.

Compound	EC50 [µM]
CN(C)Cc1ccc(S(=O)(=O)N2CCC(c3ccccc3)CC2)cc1N1[C@@H]2CC[C@H]1CN(C(=O)c1ccc(F)cc1Cl)C2 [compound 073, (2-chloro-4-fluoro-phenyl)-[(1S,5R)-8-[2-[(dimethylamino)methyl]-5-[(4-phenyl-1-piperidyl)sulfonyl]phenyl]-3,8-diazabicyclo[3.2.1]octan-3-yl]methanone]	1 to 10
Cc1c(Cl)cc(S(=O)(=O)NC(C)(C)C)cc1N1[C@@H]2CC[C@H]1CN(C(=O)c1ccc(F)cc1Cl)C2 [compound 074, N-tert-butyl-3-chloro-5-[(1S,5R)-3-(2-chloro-4-fluoro-benzoyl)-3,8-diazabicyclo[3.2.1]octan-8-yl]-4-methyl-benzenesulfonamide]	< 1
CC(C)(C)NS(=O)(=O)c1cc(Cl)c(Cl)c(N2[C@@H]3CC[C@H]2CN(C(=O)c2ccc(F)cc2Cl)C3)c1 [compound 075, N-tert-butyl-3,4-dichloro-5-[(1S,5R)-3-(2-chloro-4-fluoro-benzoyl)-3,8-diazabicyclo[3.2.1]octan-8-yl]benzenesulfonamide]	< 1
O=C(c1ccc(F)cc1Cl)N1C[C@H]2CC[C@@H](C1)N2c1cc(S(=O)(=O)N2CCC(c3ccccc3)CC2)ccc1OCCO [compound 076]	< 1
O=C(c1ccc(F)cc1Cl)N1C[C@H]2CC[C@@H](C1)N2c1cc(S(=O)(=O)N2CCC(CCc3ccccc3)CC2)ccc1OCCO [compound 077, (2-chloro-4-fluoro-phenyl)-[(1S,5R)-8-[2-(2-hydroxyethoxy)-5-[[4-(2-phenylethyl)-1-piperidyl]sulfonyl]phenyl]-3,8-diazabicyclo[3.2.1]octan-3-yl]methanone]	< 1
O=C(c1ccc(F)cc1Cl)N1C[C@H]2CC[C@@H](C1)N2c1cc(S(=O)(=O)N2CCN(CCc3ccc(Cl)cc3)CC2)ccc1OCCO [compound 078, (2-chloro-4-fluoro-phenyl)-[(1S,5R)-8-[5-[4-[2-(4-chlorophenyl)ethyl]piperazin-1-yl]sulfonyl-2-(2-hydroxyethoxy)phenyl]-3,8-diazabicyclo[3.2.1]octan-3-yl]methanone]	< 1
CCCN(C)S(=O)(=O)c1ccc(C2CC2)c(N2[C@@H]3CC[C@H]2CN(C(=O)c2ccc(F)cc2Cl)C3)c1 [compound 079]	< 1
O=C(c1ccc(F)cc1Cl)N1C[C@H]2CC[C@@H](C1)N2c1cc(S(=O)(=O)N2CCC(c3ccccc3)CC2)ccc1C1CC1 [compound 080, (2-chloro-4-fluoro-phenyl)-[(1S,5R)-8-[2-cyclopropyl-5-[(4-phenyl-1-piperidyl)sulfonyl]phenyl]-3,8-diazabicyclo[3.2.1]octan-3-yl]methanone]	< 1
O=C(c1ccc(F)cc1Cl)N1C[C@H]2CC[C@@H](C1)N2c1cc(S(=O)(=O)N2CCC(c3ccccc3)CC2)ccc1-c1c[nH]cn1 [compound 081]	< 1
Cn1cnc(-c2ccc(S(=O)(=O)N3CCC(c4ccccc4)CC3)cc2N2[C@@H]3CC[C@H]2CN(C(=O)c2ccc(F)cc2Cl)C3)c1 [compound 082, (2-chloro-4-fluoro-phenyl)-[(1S,5R)-8-[2-(1-methylimidazol-4-yl)-5-[(4-phenyl-1-piperidyl)sulfonyl]phenyl]-3,8-diazabicyclo[3.2.1]octan-3-yl]methanone]	1 to 10
O=C(c1ccc(F)cc1Cl)N1C[C@H]2CC[C@@H](C1)N2c1cc(S(=O)(=O)N2CCC(c3ccccc3)CC2)cc(F)c1O [compound 083, (2-chloro-4-fluoro-phenyl)-[(1S,5R)-8-[3-fluoro-2-hydroxy-5-[(4-phenyl-1-piperidyl)sulfonyl]phenyl]-3,8-diazabicyclo[3.2.1]octan-3-yl]methanone]	< 1
O=C(c1ccc(F)cc1Cl)N1C[C@H]2CC[C@@H](C1)N2c1cc(S(=O)(=O)N2CCC(c3ccc(F)cc3)CC2)cc(F)c1O [compound 084, (2-chloro-4-fluoro-phenyl)-[(1S,5R)-8-[3-fluoro-5-[[4-(4-fluorophenyl)-1-piperidyl]sulfonyl]-2-hydroxy-phenyl]-3,8-diazabicyclo[3.2.1]octan-3-yl]methanone]	< 1
CC(C)(C)NS(=O)(=O)c1cc(F)c(O)c(N2[C@@H]3CC[C@H]2CN(C(=O)c2ccc(F)cc2Cl)C3)c1 [compound 085, N-tert-butyl-3-[(1S,5R)-3-(2-chloro-4-fluoro-benzoyl)-3,8-diazabicyclo[3.2.1]octan-8-yl]-5-fluoro-4-hydroxy-benzenesulfonamide]	< 1
CN(CC1CC1)S(=O)(=O)c1cc(F)c(O)c(N2[C@@H]3CC[C@H]2CN(C(=O)c2ccc(F)cc2Cl)C3)c1 [compound 086, 3-[(1S,5R)-3-(2-chloro-4-fluoro-benzoyl)-3,8-diazabicyclo[3.2.1]octan-8-yl]-N-(cyclopropylmethyl)-5-fluoro-4-hydroxy-N-methyl-benzenesulfonamide]	< 1
O=C(c1ccc(F)cc1Cl)N1C[C@H]2CC[C@@H](C1)N2c1cc(S(=O)(=O)N2CCC(c3ccccc3)CC2)cc(C(F)(F)F)c1O [compound 087]	< 1
O=C(c1ccc(F)cc1Cl)N1C[C@H]2CC[C@@H](C1)N2c1cc(S(=O)(=O)N2CCC(c3ccc(F)cc3)CC2)cc(C(F)(F)F)c1O [compound 088, (2-chloro-4-fluoro-phenyl)-[(1S,5R)-8-[5-[[4-(4-fluorophenyl)-1-piperidyl]sulfonyl]-2-hydroxy-3-(trifluoromethyl)phenyl]-3,8-diazabicyclo[3.2.1]octan-3-yl]methanone]	< 1
CC(C)(C)NS(=O)(=O)c1cc(N2[C@@H]3CC[C@H]2CN(C(=O)c2ccc(F)cc2Cl)C3)c(O)c(C(F)(F)F)c1 [compound 089]	1 to 10
Cc1cc(S(=O)(=O)N2CCC(c3ccccc3)CC2)cc(N2[C@@H]3CC[C@H]2CN(C(=O)c2ccc(F)cc2Cl)C3)c1O [compound 090, (2-chloro-4-fluoro-phenyl)-[(1S,5R)-8-[2-hydroxy-3-methyl-5-[(4-phenyl-1-piperidyl)sulfonyl]phenyl]-3,8-diazabicyclo[3.2.1]octan-3-yl]methanone]	< 1
Cc1cc(S(=O)(=O)N2CCC(c3ccc(F)cc3)CC2)cc(N2[C@@H]3CC[C@H]2CN(C(=O)c2ccc(F)cc2Cl)C3)c1O [compound 091, (2-chloro-4-fluoro-phenyl)-[(1S,5R)-8-[5-[[4-(4-fluorophenyl)-1-piperidyl]sulfonyl]-2-hydroxy-3-methyl-phenyl]-3,8-diazabicyclo[3.2.1]octan-3-yl]methanone]	< 1
Cc1cc(S(=O)(=O)N(C)CC2CC2)cc(N2[C@@H]3CC[C@H]2CN(C(=O)c2ccc(F)cc2Cl)C3)c1O [compound 092, 3-[(1S,5R)-3-(2-chloro-4-fluoro-benzoyl)-3,8-diazabicyclo[3.2.1]octan-8-yl]-N-(cyclopropylmethyl)-4-hydroxy-N,5-dimethyl-benzenesulfonamide]	< 1
Cc1cc(S(=O)(=O)NC(C)(C)C)cc(N2[C@@H]3CC[C@H]2CN(C(=O)c2ccc(F)cc2Cl)C3)c1O [compound 093]	< 1
CCc1cc(S(=O)(=O)N2CCC(c3ccccc3)CC2)cc(N2[C@@H]3CC[C@H]2CN(C(=O)c2ccc(F)cc2Cl)C3)c1O [compound 094, (2-chloro-4-fluoro-phenyl)-[(1S,5R)-8-[3-ethyl-2-hydroxy-5-[(4-phenyl-1-piperidyl)sulfonyl]phenyl]-3,8-diazabicyclo[3.2.1]octan-3-yl]methanone]	< 1
CC(C)(C)NS(=O)(=O)c1cc(Cl)c(O)c(N2[C@@H]3CC[C@H]2CN(C(=O)c2ccc(F)cc2Cl)C3)c1 [compound 095, N-tert-butyl-3-chloro-5-[(1S,5R)-3-(2-chloro-4-fluoro-benzoyl)-3,8-diazabicyclo[3.2.1]octan-8-yl]-4-hydroxy-benzenesulfonamide]	< 1
CN(CC1CC1)S(=O)(=O)c1cc(Cl)c(O)c(N2[C@@H]3CC[C@H]2CN(C(=O)c2ccc(F)cc2Cl)C3)c1 [compound 096, 3-chloro-5-[(1S,5R)-3-(2-chloro-4-fluoro-benzoyl)-3,8-diazabicyclo[3.2.1]octan-8-yl]-N-(cyclopropylmethyl)-4-hydroxy-N-methyl-benzenesulfonamide]	< 1
O=C(c1ccc(F)cc1Cl)N1C[C@H]2CC[C@@H](C1)N2c1cc(S(=O)(=O)N2CCC(F)CC2)cc(Cl)c1O [compound 097, (2-chloro-4-fluoro-phenyl)-[(1S,5R)-8-[3-chloro-5-[(4-fluoro-1-piperidyl)sulfonyl]-2-hydroxy-phenyl]-3,8-diazabicyclo[3.2.1]octan-3-yl]methanone]	< 1
O=C(c1ccc(F)cc1Cl)N1C[C@H]2CC[C@@H](C1)N2c1cc(S(=O)(=O)N2CCC(c3ccccc3)CC2)cc(Cl)c1O [compound 098]	< 1
O=C(c1ccc(F)cc1Cl)N1C[C@H]2CC[C@@H](C1)N2c1cc(S(=O)(=O)N2CCC(c3ccc(F)cc3)CC2)cc(Cl)c1O [compound 099, (2-chloro-4-fluoro-phenyl)-[(1S,5R)-8-[3-chloro-5-[[4-(4-fluorophenyl)-1-piperidyl]sulfonyl]-2-hydroxy-phenyl]-3,8-diazabicyclo[3.2.1]octan-3-yl]methanone]	< 1
CC(C)NS(=O)(=O)c1cc(Cl)c(O)c(N2[C@@H]3CC[C@H]2CN(C(=O)c2ccc(F)cc2Cl)C3)c1 [compound 100]	< 1
